pIC50: −log10 of the molar value.
Key:
Assay type in all cases: cell-based
EP4 = biological target: T1, EP4 (Homo sapiens, UniProt P35408); assay: hEP4 cAMP Assay (BT549 breast cancer cells, HTRF cAMP, PGE2 6 nM); conditions: antagonistic activity, PGE2 6 nM (EC80)
T1 construct: BT549 breast cancer cells, express high endogenous EP4 levels and very low EP2 levels; host or cells: BT549 breast cancer cells
Method in brief: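 BT549 cells (endogenous EP4, very low EP2) in HBSS/20 mM HEPES/0.2% BSA/2 mM IBMX, pre-incubated 45 min RT with compound, then stimulated 30 min RT with PGE2 6 nM (EC80). cAMP read by HTRF competitive immunoassay (665/620 nm), converted via calibrator to % of DMSO control; IC50 from duplicate dose-response curves.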

PTGER4 (EP4) = biological target: T2, PTGER4 (EP4) (Homo sapiens, UniProt P35408); assay: hEP4 b-Arrestin Assay (PathHunter HEK 293 PTGER4 b-arrestin cells, PGE2 20 nM); conditions: antagonistic activity, beta-arrestin assay, HEK 293 PTGER4 cells, PGE2 20 nM (EC80); read-out: hEP4 b-arr IC50
T2 construct: host or cells: HEK 293 (PathHunter, stably transfected)
T2 sequence (P35408 whole entry): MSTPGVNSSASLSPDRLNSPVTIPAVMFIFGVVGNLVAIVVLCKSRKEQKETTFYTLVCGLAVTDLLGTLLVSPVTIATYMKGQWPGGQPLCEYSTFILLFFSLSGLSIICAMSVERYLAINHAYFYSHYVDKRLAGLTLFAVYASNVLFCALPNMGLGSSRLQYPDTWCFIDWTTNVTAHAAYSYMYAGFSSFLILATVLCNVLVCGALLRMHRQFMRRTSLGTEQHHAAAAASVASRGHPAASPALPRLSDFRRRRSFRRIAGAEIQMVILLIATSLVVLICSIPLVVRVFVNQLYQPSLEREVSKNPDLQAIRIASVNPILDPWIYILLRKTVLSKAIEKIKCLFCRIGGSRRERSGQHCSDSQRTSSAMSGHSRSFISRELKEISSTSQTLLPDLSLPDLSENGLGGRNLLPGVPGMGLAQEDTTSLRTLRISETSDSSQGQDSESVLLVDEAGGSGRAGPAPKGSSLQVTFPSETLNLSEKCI
Description: The antagonistic activities of the compounds of formula (I) on the EP2 and EP4 receptors are also determined in accordance with the following experimental method.
The assay is using the PathHunter™ HEK 293 PTGER2 and PTGER4 b-arrestin cell lines from DiscoverX. The system is based on the Enzyme Fragment Complementation Technology. Two complementing fragments of the b-galactosidase enzyme are expressed within stably transfected cells. The larger portion of b-gal, termed EA for Enzyme Acceptor, is fused to the C-terminus of b-arrestin 2. The smaller fragment, termed ProLink™ tag, is fused to PTGER2 (EP2) or PTRGER4 (EP4) at the C-terminus. Upon activation, b-arrestin is recruited which forces the interaction of ProLink and EA, allowing complementation of the two fragments of b-gal and the formation of a functional enzyme which is capable of hydrolysing the substrate and generating a chemiluminescent signal.
The HEK 293 PTGER4 b-arrestin cells (DiscoverX 93-030-4C1) are detached from culture dishes with a cell dissociation buffer (Invitrogen, 13151-014), and collected in growing medium (GM: DMEM+Glutamax-I (Invitrogen 32430)/10% FCS, 1% Penicilin/streptomycin). 5000 cells per well of a 384 well plate (white with white bottom Greiner 781080) are seeded in 20 ul per well of GM. Plate is incubated at 37° C., 5% CO2 for 24 hours.
Stock solutions of test compounds are made at a concentration of 10 mM in DMSO, and serially diluted in DMSO to concentrations required for inhibition dose response curves (tested concentration range 10 μM-2 nM or 1 μM-0.2 nM).
PGE2 (Cayman 14010, stock solution: 100 μM in DMSO) is used as agonist at 20 nM final concentration, corresponding to EC80.
Five microliters of diluted compounds are transferred into the assay plate. Plate is pre-incubated 15 minutes at 37° C. Then five microliters of PGE2 (final conc. 20 nM) are transferred into the assay plate. Plate is incubated 120 minutes at 37° C.
PathHunter Glo Detection Kit components are thawed and mix according to manufacturer's instructions: 1 part Galacton Star Substrate with 5 parts Emerald II™ Solution, and 19 parts of PathHunter Cell Assay Buffer, respectively. Twelve μl of reagent are transferred to the assay plate and incubate for 1 hour at room temperature in the dark. Luminescence counts are read on a BMG Fluostar Optima reader according to manufacturer's instructions.
For each compound concentration calculate of the percentage of activity compared to DMSO control value as average ±STDEV. (each concentration is measured in duplicate)
IC50 values and curves are generated with XLfit software (IDBS) using Dose-Response One Site model 203. When compounds were measured multiple times, mean values are given.

EP2 = biological target: T3, EP2 (Homo sapiens, UniProt P43116); assay: hEP2 cAMP Assay (SF295 glioblastoma cells, HTRF cAMP, PGE2 75 nM); conditions: antagonistic activity, PGE2 75 nM (EC80)
T3 construct: SF295 glioblastoma cells express high endogenous EP2 and no EP4; host or cells: SF295 glioblastoma cells
T3 sequence (P43116 whole entry): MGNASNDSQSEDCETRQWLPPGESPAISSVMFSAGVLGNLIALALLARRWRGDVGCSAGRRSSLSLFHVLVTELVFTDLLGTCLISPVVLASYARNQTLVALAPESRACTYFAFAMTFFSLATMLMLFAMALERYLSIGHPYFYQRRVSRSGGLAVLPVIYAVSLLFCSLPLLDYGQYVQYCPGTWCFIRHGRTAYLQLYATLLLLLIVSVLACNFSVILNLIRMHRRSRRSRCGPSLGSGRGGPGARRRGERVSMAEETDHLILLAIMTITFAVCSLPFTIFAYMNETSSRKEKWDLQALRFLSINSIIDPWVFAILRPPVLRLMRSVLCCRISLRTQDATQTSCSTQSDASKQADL
Method in brief: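 IC50 values derive from duplicate-point curves of percent cAMP relative to DMSO, read by HTRF (665/620 nm) against a cAMP calibrator. Compounds (30 μM to 0.01 nM ranges) were given 45 min at room temperature before 30 min with 75 nM PGE2, in EP2-only SF295 cells with 2 mM IBMX.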

PTGER2 (EP2) = biological target: T4, PTGER2 (EP2) (Homo sapiens, UniProt P43116); assay: hEP2 b-Arrestin Assay (PathHunter HEK 293 PTGER2 b-arrestin cells, PGE2 5 μM); conditions: antagonistic activity, beta-arrestin assay, HEK 293 PTGER2 cells, PGE2 5 μM (EC80); read-out: hEP2 b-arr IC50
T4 construct: host or cells: HEK 293 (PathHunter, stably transfected)
T4 sequence (P43116 whole entry): as above
Method in brief: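 PathHunter enzyme-fragment complementation in HEK 293 cells: compounds (10 μM-2 nM or 1 μM-0.2 nM) pre-incubated 15 min at 37 °C, then 5 μM PGE2 (EC80) for 120 min at 37 °C. Chemiluminescence read after 1 h detection; IC50 from duplicate dose-response fits, means of repeats.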

T1 sequence (P35408 whole entry): as the sequence (P35408 whole entry) above

Structure (SMILES)	pIC50 (EP4)	pIC50 (PTGER4 (EP4))	pIC50 (EP2)	pIC50 (PTGER2 (EP2))
CCOc1cc(-c2cc(NCCc3ccc(C(F)F)c4ccccc34)ncn2)ccc1OCC(=O)O [Example 73, (4-{6-[2-(4-Difluoromethyl-naphthalen-1-yl)-ethylamino]-pyrimidin-4-yl}-2-ethoxy-phenoxy)-acetic acid]	6.99	7.47	6.33	
CCOc1cc(-c2cc(NCCc3ccc(C)c4ccccc34)ncn2)ccc1OCC(=O)O [Example 76, (2-Ethoxy-4-{6-[2-(4-methyl-naphthalen-1-yl)-ethylamino]-pyrimidin-4-yl}-phenoxy)-acetic acid]	6.94	7.18	6.59	
CCOc1cc(-c2cc(NCCc3ccc(C)c4ccccc34)ncn2)ccc1CC(=O)O [Example 99, (2-Ethoxy-4-{6-[2-(4-methyl-naphthalen-1-yl)-ethylamino]-pyrimidin-4-yl}-phenyl)-acetic acid]	6.65	6.75	6.12	
COc1ccc2ncccc2c1CCNc1cc(-c2ccc3c(=O)[nH]n(C)c3c2)ncn1 [Example 117, 6-{6-[2-(6-Methoxy-quinolin-5-yl)-ethylamino]-pyrimidin-4-yl}-1-methyl-1,2-dihydro-indazol-3-one]	6.79	6.16	6.25	
COc1ccc2cc(F)cc(CCNc3cc(-c4cc(C(F)(F)F)c(C(=O)O)s4)ncn3)c2n1 [Example 152, 5-{6-[2-(6-Fluoro-2-methoxy-quinolin-8-yl)-ethylamino]-pyrimidin-4-yl}-3-trifluoromethyl-thiophene-2-carboxylic acid]	6.71	6.97	6.30	
CCOc1cc(-c2cc(NCCc3ccc(Br)c4ccn(C)c34)ncn2)ccc1CC(=O)O [Example 161, (4-{6-[2-(4-Bromo-1-methyl-1H-indol-7-yl)-ethylamino]-pyrimidin-4-yl}-2-ethoxy-phenyl)-acetic acid]		6.44		6.20
CCOc1cc(-c2cc(NCCc3ccc(Br)c4ccccc34)ncn2)ccc1CC(=O)O [Example 162, (4-{6-[2-(4-Bromo-naphthalen-1-yl)-ethylamino]-pyrimidin-4-yl}-2-ethoxy-phenyl)-acetic acid]		6.94		6.66
CCOc1cc(-c2cc(NCCc3cc(F)cc4sccc34)ncn2)ccc1CC(=O)O [Example 165, (2-Ethoxy-4-{6-[2-(6-fluoro-benzo[b]thiophen-4-yl)-ethylamino]-pyrimidin-4-yl}-phenyl)-acetic acid]		6.26		6.06
CCOc1cc(-c2cc(NCCc3c(OC)ccc4sccc34)ncn2)ccc1CC(=O)O [Example 166, (2-Ethoxy-4-{6-[2-(5-methoxy-benzo[b]thiophen-4-yl)-ethylamino]-pyrimidin-4-yl}-phenyl)-acetic acid]		6.67		7.29
CCOc1cc(-c2cc(NCCc3c(OC)ccc4c3ccn4C)ncn2)ccc1CC(=O)O [Example 167, (2-Ethoxy-4-{6-[2-(5-methoxy-1-methyl-1H-indol-4-yl)-ethylamino]-pyrimidin-4-yl}-phenyl)-acetic acid]		6.12		7.16
COc1ccc2ccn(C)c2c1CCNc1cc(-c2ccc(C(=O)O)c(SC)c2)ncn1 [Example 168, 4-{6-[2-(6-Methoxy-1-methyl-1H-indol-7-yl)-ethylamino]-pyrimidin-4-yl}-2-methylsulfanyl-benzoic acid]		6.97		7.03
CSc1cc(-c2cc(NCCc3ccc(Br)c4ccn(C)c34)ncn2)ccc1C(=O)O [Example 169, 4-{6-[2-(4-Bromo-1-methyl-1H-indol-7-yl)-ethylamino]-pyrimidin-4-yl}-2-methylsulfanyl-benzoic acid]		6.46		6.64
CSc1cc(-c2cc(NCCc3c(Br)cc(F)c4ccccc34)ncn2)ccc1C(=O)O [Example 170, 4-{6-[2-(2-Bromo-4-fluoro-naphthalen-1-yl)-ethylamino]-pyrimidin-4-yl}-2-methylsulfanyl-benzoic acid]		6.39		6.32
CSc1cc(-c2cc(NCCc3cccc4c(F)cccc34)ncn2)ccc1C(=O)O [Example 172, 4-{6-[2-(5-Fluoro-naphthalen-1-yl)-ethylamino]-pyrimidin-4-yl}-2-methylsulfanyl-benzoic acid]		6.22		7.35
COc1ccc2sccc2c1CCNc1cc(-c2ccc(C(=O)O)c(SC)c2)ncn1 [Example 174, 4-{6-[2-(5-Methoxy-benzo[b]thiophen-4-yl)-ethylamino]-pyrimidin-4-yl}-2-methylsulfanyl-benzoic acid]		6.53		8.10
COc1ccc2c(ccn2C)c1CCNc1cc(-c2ccc(C(=O)O)c(SC)c2)ncn1 [Example 175, 4-{6-[2-(5-Methoxy-1-methyl-1H-indol-4-yl)-ethylamino]-pyrimidin-4-yl}-2-methylsulfanyl-benzoic acid]		6.61		8.52
CSc1cc(-c2cc(NCCc3c(C)ccc4c3ccn4C)ncn2)ccc1C(=O)O [Example 176, 4-{6-[2-(1,5-Dimethyl-1H-indol-4H)-ethylamino]-pyrimidin-4-yl}-2-methylsulfanyl-benzoic acid]		6.26		8.52
CCOc1ccc2sccc2c1CCNc1cc(-c2ccc(C(=O)O)c(SC)c2)ncn1 [Example 177, 4-{6-[2-(5-Ethoxy-benzo[b]thiophen-4-yl)-ethylamino]-pyrimidin-4-yl}-2-methylsulfanyl-benzoic acid]		6.48		8.40
CSc1cc(-c2cc(NCCc3cc(F)cc4ccccc34)ncn2)ccc1C(=O)O [Example 178, 4-{6-[2-(3-Fluoro-naphthalen-1-yl)-ethylamino]-pyrimidin-4-yl}-2-methylsulfanyl-benzoic acid]		6.06		6.85
CCOc1cc(-c2cc(NCCc3ccc(Br)c4ccn(C)c34)ncn2)ccc1C(=O)O [Example 180, 4-{6-[2-(4-Bromo-1-methyl-1H-indol-7-yl)-ethylamino]-pyrimidin-4-yl}-2-ethoxy-benzoic acid]		6.63		6.36
CCOc1cc(-c2cc(NCCc3c(Br)cc(F)c4ccccc34)ncn2)ccc1C(=O)O [Example 181, 4-{6-[2-(2-Bromo-4-fluoro-naphthalen-1-yl)-ethylamino]-pyrimidin-4-yl}-2-ethoxy-benzoic acid]		6.05		6.02
CCOc1cc(-c2cc(NCCc3cccc4c(F)cccc34)ncn2)ccc1C(=O)O [Example 183, 2-Ethoxy-4-{6-[2-(5-fluoro-naphthalen-1-yl)-ethylamino]-pyrimidin-4-yl}-benzoic acid]		6.15		7.22
CCOc1cc(-c2cc(NCCc3c(OC)ccc4sccc34)ncn2)ccc1C(=O)O [Example 185, 2-Ethoxy-4-{6-[2-(5-methoxy-benzo[b]thiophen-4-yl)-ethylamino]-pyrimidin-4-yl}-benzoic acid]		6.70		7.85

— patent US11446298B2, “Pyrimidine derivatives” (Idorsia Pharmaceuticals Ltd, priority 2017, dated 2022)
